Test results taken from patent US9533969B2, “Materials and method for inhibiting replication protein A and uses thereof” (Indiana University Research and Technology Corp., priority 2010, dated 2017).
Where “and” joins values, the source holds several entries; their conditions need not be identical. Equal entries are not always repeated. Each block holds one molecule with its values, some of them ahead of it.

Columns and labels:
[1] = test system: H460 NSCLC cells; assay: Cell cycle distribution by PI flow cytometry; type: cell-based, human
Experimental: H460 cells were analyzed for apoptosis using an Annexin V-FITC/Propidium iodide (PI) Vybrant Apoptosis Assay Kit (Invitrogen), according to manufacturer's instructions. Cells were plated at a density of 1×10^4 cells per cm^2 and allowed to adhere for 24 hours and then treated with compound TDLR-505 for 48 hours. Following plating and treatment of H460 cells as described above, adherent and non-adherent cells were collected, processed, and analyzed on a BD FACScan flow cytometer. Data was analyzed using WinMDI software (http://facs.scripps.edu/software.html). Cell cycle analysis was performed by PI staining Briefly, cells were plated and treated with compound collected and then washed twice with PBS-EDTA supplemented with 1% BSA. Cells were fixed in 70% EtOH at −20° C. while vortexing followed by incubation on ice for 30 minutes. […] Cells were analyzed on a Becton Dickinson FACScan flow cytometer. Cells were gated and analyzed on a histogram with events plotted against the FL2-A parameter. Cell cycle distribution was analyzed using ModFit software. […] Cells were harvested and analyzed for cell cycle distribution as described above.
Referring now to FIG. 5A. H460 NSCLC cells were treated with 0 and 75 μM of compound TDLR-505 for 48 hours and then analyzed for cell cycle distribution using flow cytometry. […] Cells were then harvested and analyzed for cell cycle distribution using flow cytometry. […]

[2] = test system: peripheral blood mononuclear cells (PBMCs); assay: Cytotoxicity in freshly isolated PBMCs; type: cell-based; settings: non-cancerous cells, data not shown
[3] = molecular target: Human RPA (Homo sapiens (Human), UniProt P27694); assay: EMSA of inhibition of RPA binding to ssDNA; settings: for IC50: 25 nM RPA, 34-base DNA, 4 parameter logistic fit, read-out: IC50 (μM) In vitro
Experimental: Small molecule inhibitors were obtained from ChemDiv and resuspended in DMSO. Compound TDLR-505 was independently synthesized and structure confirmed by mass spectrometry analysis. Human RPA was purified using an E. coli over expression system as previously described (7). EMSAs were performed in 20 μL reactions containing 25 nM RPA, 25 nM 5′[^32P]-labeled 34-base […] DNA as previously described (7). The final concentration of DMSO was 1%.
(§1) Referring now to TABLE 1, the in vitro IC50 was determined by EMSA analysis as described in FIG. 1A. The cellular IC50 value was determined by treating H460 cells with the indicated compounds and analyzing annexinV/PI staining as described in Methods. The in vitro and cellular data was analyzed using standard 4 parameter logistic-curve. The IC50 values and standard error of the fit were determined from this analysis.
Referring now to FIGS. 2C, D and E, EMSA analysis of compound TDLR-505, briefly, increasing concentrations of compound TDRL-505 were pre-incubated with RPA and DNA binding activity was assessed via EMSA using a 34-base ssDNA substrate. Referring now to FIG. 2D, the average and standard deviation of each point are presented. The data was fit to a standard 4 parameter logistic curve with an N=4.

[4] = Pharmacokinetic analysis in mice; type: in vivo; settings: for AUC(0-t) / Cmax / Tmax / half-life: mouse, serum
Experimental: Pharmacokinetic analysis. TDRL-505 was administered to mice at 200 mg/kg either ip or po and blood drawn at 1, 2, 4, 8, 24 and 48 hours post treatment. Serum concentration of TDRL-505 was measured using a HPLC MS/MS protocol and PK parameters analysis using on-compartmental analysis.
Based on the in vivo anticancer activity of TRL-505 a comparison of pharmacokinetic parameters with both ip and po dosing regimens was made. Naive mice were given a single dose and as described in Table 3, blood was drawn at various time intervals and TRDL-505 concentration determined via a HPCL/MSMS protocol developed for this compound.

[5] = test system: RPA; assay: Indirect immunofluorescence of RPA in H460 cells; type: cell-based, human; settings: 50 μM, 3 hours
Experimental: H460 cells were plated on chamber slides (LabTek) as described above. Cells were then treated for 3 hours with either 50 μM of compound TDLR-505 or vehicle as indicated and following treatment, cells were fixed in 4% paraformaldehyde at 25° C. for 3 minutes followed by washing in 0.2% Triton X-100 for 2 minutes at 4° C. The slides were then blocked in 15% FBS in PBS for 1 hour at 25° C. and then incubated with anti-RPA 34 primary antibody (Neomarkers) at a dilution of 1:500 in 15% FBS for 1 hour. Slides were then washed 3×10 minutes with 15% FBS and then incubated with Alexa Fluor-594 goat-anti-mouse secondary antibody (Invitrogen) at a dilution of 1:300 for 1 hour. Slides were again washed and stained with 300 nM DAPI diluted in PBS-EDTA for five minutes. […] Slides were visualized and images analyzed and quantified using ImageJ software.
These cellular effects seen following treatment with compound TDLR-505 correlate with an inability of RPA to interact with DNA which could then result in numerous possibilities including degradation or redistribution of RPA within the cell. […] Referring now to FIG. 4C, H460 cells were treated with 50 μM compound TDLR-505 or vehicle for 3 hours and analyzed for RPA expression and localization by indirect immunofluorescence using an Alexa Fluor594 secondary antibody (red). […] RPA expression was assessed via western blot analysis probing for the p34 subunit. […]

[6] = test system: H460 cells; assay: H460 NSCLC mouse xenograft model; type: in vivo, NOD/SCID mice; settings: oral dosing
Text: Mice that had been implanted with a human NSCLC tumor cells were subjected to a regime of oral dosing. The tumors were allowed to grow to 100 mm3 after which treatment with TDRL-505 or vehicle was commenced.

[7] = test system: A549 NSCLC cell line; assay: Cytotoxicity in A549 cells; type: cell-based; settings: data not shown
[8] = test system: RPA p34; assay: Western blot of RPA p34 in H460 cells; type: cell-based, human; settings: 100 μM, 6 hours, without or with 25 μM etoposide
Experimental: H460 cells were plated and treated with either vehicle or 100 μM compound TDLR-505 in the presence or absence of 25 μM etoposide for 6 hours and then processed for western blot analysis using a RIPA lysis and extraction procedure. RPA was detected with an anti-RPA p34 antibody (Neomarkers) and goat anti-mouse-HRP secondary (Santa Cruz). Bands were visualized using chemiluminescence detection.
These cellular effects seen following treatment with compound TDLR-505 correlate with an inability of RPA to interact with DNA which could then result in numerous possibilities including degradation or redistribution of RPA within the cell. Indirect immunofluorescence was used to assess how inhibition of RPA binding influences cellular localization. Referring now to FIG. 4C, H460 cells were treated with 50 μM compound TDLR-505 or vehicle for 3 hours and analyzed for RPA expression and localization by indirect immunofluorescence using an Alexa Fluor594 secondary antibody (red). Slides were counter stained with DAPI (blue) and images merged. Magnification of the boxed cells is presented below the low magnification images. […] (FIG. 4C). […] Referring now to FIG. 4D, H460 cells were treated with vehicle or 100 μM compound TDLR-505 without or with etoposide (25 μM) as indicated in the figure. RPA expression was assessed via western blot analysis probing for the p34 subunit. […]

[9] = test system: H460 cells; assay: Combination index analysis with cisplatin or etoposide; type: cell-based, human; settings: 48 hours
Experimental: In addition to its essential role in DNA replication, RPA is required for the repair of bulky DNA adducts as well as DNA breaks induced by various types of exogenous and endogenous agents. […] In order to determine the effect of RPA inhibition on cellular sensitivity to cisplatin, the combination index (CI) (20) was measured. Referring now to FIG. 6. As illustrated in this experiment, compound TDLR-505 acts synergistically with both cisplatin and etoposide in H460 cells. H460 cells were treated with increasing fractions of the IC50 concentration of either cisplatin or etoposide with compound TDLR-505 for 48 hours. After treatment, cells were harvested and analyzed by annexin V/PI flow cytometry. Open circles indicate CI analysis of cisplatin with TDLR-505 and closed circles represent etoposide with TDLR-505. The combination index analysis was performed as previously described (20). The data are presented as the average±SD from (N=3). When cisplatin and compound TDLR-505 were used in combination, cell viability was decreased to a level that was greater than that induced by either agent alone, resulting in a synergy between the two compounds and CI of 0.4 at the highest fraction of cells affected. […] The ability of compound TDLR-505 to synergize with etoposide was also examined. Etoposide induces replication fork arrest and DNA damage response, both cellular processes that require RPA (21).

[10] = test system: H460 NSCLC cell line; assay: Annexin V/PI flow cytometry, induction of cell death; type: cell-based, human; settings: Homo sapiens, NCI-H460; H460 cells, 48 hour exposure, annexinV/PI staining; read-out: IC50 (μM) Cellular
Experimental: H460 cells were analyzed for apoptosis using an Annexin V-FITC/Propidium iodide (PI) Vybrant Apoptosis Assay Kit (Invitrogen), according to manufacturer's instructions. Cells were plated at a density of 1×10^4 cells per cm^2 and allowed to adhere for 24 hours and then treated with compound TDLR-505 for 48 hours. Following plating and treatment of H460 cells as described above, adherent and non-adherent cells were collected, processed, and analyzed on a BD FACScan flow cytometer. Data was analyzed using WinMDI software (http://facs.scripps.edu/software.html). Cell cycle analysis was performed by PI staining Briefly, cells were plated and treated with compound collected and then washed twice with PBS-EDTA supplemented with 1% BSA. Cells were fixed in 70% EtOH at −20° C. while vortexing followed by incubation on ice for 30 minutes. Cells were then collected and stained with PI solution (10 μg/mL PI and 25 μg/mL RNaseA in PBS-EDTA supplemented with 1% BSA). Cells were analyzed on a Becton Dickinson FACScan flow cytometer. Cells were gated and analyzed on a histogram with events plotted against the FL2-A parameter. Cell cycle distribution was analyzed using ModFit software. G2 arrest was induced by treatment with 0.8 μg/mL nocodazole for 12 hours (10). Cells were then washed with PBS and treated with either vehicle or compound TDLR-505 (100 μM). Cells were harvested and analyzed for cell cycle distribution as described above.
as §1
Referring now to FIGS. 4A, 4B, 4C and 4D, the effects of compound TDRL-505 on induction of cell death and cell cycle progression in a H460 NSCLC cell line was measured. Briefly, H460 cells were treated with compound TDRL-505 for 48 hours and analyzed for cell viability via staining with AnnexinV/PI and presented as dot plots (see FIG. 3A). Referring now to FIG. 4B, the data from FIG. 4A was quantified and the percentage of Annexin-/PI-cells (lower left quadrant), indicating live cells, was calculated. The average±SD (N=4) are presented and the data was fit to a 4-parameter logistic curve.

[11] = test system: H460 NSCLC cell line; assay: Crystal violet staining cell viability assay; type: cell-based; settings: Homo sapiens, NCI-H460; data not shown
[12] = test system: NOD/SCID mice; settings: mouse, in vivo
Experimental: Mice were monitored for signs of overt toxicity and bodyweights measured three times per week. Mice were sacrificed and gross necroscopy performed to assess organ weights and inspected for signs of toxicity. […] NOD/SCID mice were then implanted with 5×10^6 H460 cells in 0.2 ml of 50% Matrigel subcutaneously. Tumors were allowed to develop for 7 days and TDRL-505 was administered via oral gavage 2× per week for one week. Tumor volumes were calculated by measuring the width and the length of the tumors and using these measurements in the equation: vol.=1×w^2/2.
Referring now to Table 3. […] Oral dosing in 0.1% Tween 80/methylcellulose was also well tolerated up to 800 mg/kg.

[13] = 200 mg/Kg PO, Methylcellulose/DMSO

Chain of Human RPA (P27694 whole entry): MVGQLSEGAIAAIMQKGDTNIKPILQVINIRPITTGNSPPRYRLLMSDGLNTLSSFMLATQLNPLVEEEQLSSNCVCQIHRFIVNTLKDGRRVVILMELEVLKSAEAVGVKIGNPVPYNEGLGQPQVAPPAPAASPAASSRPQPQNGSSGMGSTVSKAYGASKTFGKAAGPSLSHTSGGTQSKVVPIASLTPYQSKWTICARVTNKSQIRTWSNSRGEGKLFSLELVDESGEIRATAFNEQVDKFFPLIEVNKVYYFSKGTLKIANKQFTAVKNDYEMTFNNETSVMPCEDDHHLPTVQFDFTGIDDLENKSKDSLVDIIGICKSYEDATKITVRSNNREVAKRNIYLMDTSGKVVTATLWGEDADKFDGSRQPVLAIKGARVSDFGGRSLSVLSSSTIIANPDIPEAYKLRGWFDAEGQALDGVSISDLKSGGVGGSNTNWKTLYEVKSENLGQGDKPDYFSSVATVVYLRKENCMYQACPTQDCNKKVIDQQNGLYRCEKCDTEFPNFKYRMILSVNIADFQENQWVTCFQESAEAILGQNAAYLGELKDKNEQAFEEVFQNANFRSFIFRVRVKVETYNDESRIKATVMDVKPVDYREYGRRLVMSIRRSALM
Chain of Human RPA (P15927 whole entry partner): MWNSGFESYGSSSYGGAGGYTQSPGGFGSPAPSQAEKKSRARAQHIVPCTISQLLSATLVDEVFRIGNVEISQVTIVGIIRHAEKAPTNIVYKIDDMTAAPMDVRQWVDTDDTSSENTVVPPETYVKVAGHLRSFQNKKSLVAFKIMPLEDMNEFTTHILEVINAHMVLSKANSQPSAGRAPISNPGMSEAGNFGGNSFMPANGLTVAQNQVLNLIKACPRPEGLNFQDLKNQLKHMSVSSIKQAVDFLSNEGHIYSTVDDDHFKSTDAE
Chain of Human RPA (P35244 whole entry partner): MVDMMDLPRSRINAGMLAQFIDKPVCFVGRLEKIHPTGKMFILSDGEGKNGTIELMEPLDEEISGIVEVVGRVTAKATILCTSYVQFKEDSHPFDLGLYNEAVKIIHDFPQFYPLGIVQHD

Structure (SMILES): CCOc1ccc2cc(C3CC(c4ccc(Br)cc4)=NN3C(=O)CCC(=O)O)c(Cl)nc2c1 (stereo not drawn) [TDRL-505]
- cell cycle distribution, asynchronous culture (in words) ([1]; 75 μM, 48 hours): increase in the proportion of cells in G1-phase
- cell cycle progression after release from nocodazole G2 arrest (in words) ([1]; 100 μM, 4, 8 and 12 hours): did not enter S-phase even 12 hours post release
- cytotoxic activity in PBMCs (in words) [2]: minimal cytotoxic activity
- IC50 [3]: 13 µM and 12.9 µM
- Cl/F ([4]; 200 mg/Kg IP, Tween80/DMSO): 8.29 mL/h
- Vdss ([4]; 200 mg/Kg IP, Tween80/DMSO): 0.11 L
- Cl/F [4, 13]: 202.33 mL/h
- Vdss [4, 13]: 0.88 L
- AUC(0-t) ([4]; 200 mg/Kg IP, Tween80/DMSO): 577 µg·h/mL
- Cmax ([4]; 200 mg/Kg IP, Tween80/DMSO): 31700 ng/mL
- Tmax ([4]; 200 mg/Kg IP, Tween80/DMSO): 8 h
- half-life ([4]; 200 mg/Kg IP, Tween80/DMSO): 7.13 h
- AUC(0-t) [4, 13]: 25 µg·h/mL
- Cmax [4, 13]: 6400 ng/mL
- Tmax [4, 13]: 1 h
- half-life [4, 13]: 2.62 h
- intensity of RPA staining vs vehicle (in words) [5]: decrease in the intensity of RPA staining
- cells with RPA staining intensity >70% of the maximum ([5]; vehicle 23%): 15%
- tumor growth in individual mice vs vehicle (in words) ([6]; FIG. 7B): significant reduction in tumor growth
- tumor growth vs vehicle control (in words) ([6]; group mean, FIG. 7A): reduction in tumor growth
- cytotoxic effect in A549 cells (in words) [7]: A similar result
- RPA expression (p34 western blot, in words) [8]: not degraded or reduced in expression
- interaction with cisplatin at lower fractions of cells affected (in words) ([9]; CI values greater than one): additive and then antagonistic
- interaction with etoposide (in words) ([9]; all fractions of cells affected): synergistic activity
- combination index (CI) with cisplatin ([9]; highest fraction of cells affected): 0.4
- IC50 [10]: 30.8 ± 1.7 µM
- IC50 [11]: 64 µM
- well tolerated dose, IP ([12]; ip): up to 400 mg/kg
- well tolerated dose, oral ([12]; po): up to 800 mg/kg

- IC50 [3]: > 100 µM
- inhibition at 100 µM ([3]; 100 μM, read-out: inhibition at the highest concentration tested): 9%
Structure (SMILES): CCN(CC)c1ccc(C2CC(c3ccc(Br)cc3)=NN2C(=O)CCC(=O)O)cc1 (stereo not drawn) [TDRL-518]

- IC50 [3]: 20.3 ± 10.7 µM
Structure (SMILES): Cc1ccc(C2=NN(C(=O)CCC(=O)O)C(c3cn(-c4ccccc4)nc3-c3ccc(C)cc3)C2)cc1 (stereo not drawn) [TDRL-520]
- IC50 [10]: 49.9 ± 2.5 µM
